Three molecules from patent EP0109255A2, “Glycerol derivatives” (ONO PHARMACEUTICAL CO., LTD., priority 1982, dated 1984) can be followed below.

The subject of the data set is mice. Kind of data set: Acute toxicity by intravenous administration (tail vein). It is filed as in vivo. As to the method:
On the other hand, it was confirmed that the acute toxicity of all extent of the compounds of the present invention was more. than 30 mg/kg by intravenous administration. Therefore, glycerol derivatives of the present invention may be considered to be sufficiently safe and suitable for medical use. For example, the mortality (dead/used) in glycerol derivatives of the present invention, i.e. compounds prepared in Example 8, 8(j) and 8(r) was 2/10, 0/10 and 0/10, respectively, when each glycerol compound was intravenously administered to tail vein in ten mice at the dose of 30 mg/kg.

On to `CCCCCCCCCCCCCCCCOCC(COCCCC[N+](C)(C)C)NC(=O)OCCCC` (racemic) [8 (j), (2RS)-l-0-hexadecyl-2-dehydroxy-2-butoxycarbonylamino-3-0-[4-(N,N,N-trimethylammonio)butyl]glycerol iodide], for which the “mortality (dead/used)” value (intravenously administered to tail vein in ten mice at the dose of 30 mg/kg) is recorded as 0/10. Regarding `CCCCCCCCCCCCCCCCOCC(COCCCC[N+](C)(C)C)NC(=O)NCCC` (stereo not drawn) [8 (r)], under “mouse, in vivo, iv, 30 mg/kg”, the “mortality (dead/used)” value is 0/10. In the case of `CCCCCCCCCCCCCCCCOCC(COCCCC[N+](C)(C)C)NC(=O)c1ccccc1` (stereo not drawn) [Example 8], the “mortality (dead/used)” value (mouse, in vivo, iv, 30 mg/kg) is reported as 2/10.
